In a melting point compilation (Tetko et al.; mined from patent text by program, amines drawn as free bases though some values may be those of a salt):

Row | melting point [°C] | Structure (SMILES)
1 | 191 to 192 | Cc1cc(OCc2cnc(-c3ccc(C(F)(F)F)cc3)nc2C2CC2)ccc1OC(C)(C)C(=O)O
2 | 121 to 125 | COc1cccc2c(NCc3ccccc3C)nccc12
3 | 79.9 to 82.1 | CC(=O)NC[C@H]1CN(c2ccc(-n3nccc3-c3ccccn3)c(F)c2)C(=O)O1
4 | 162 to 164 | COC(=O)c1cc2ccc(OC)cc2c2c1C=CC(c1ccc(OC)cc1)(c1ccc(OC)cc1)O2
5 | 126 to 127 | Cc1nc2cnccc2n1-c1ccc(Cn2nnc3ccccc32)cc1
6 | 117 to 118 | Cc1noc(=O)c2ccc(NC(=O)C(=O)CC3(c4cccc(C(F)(F)F)c4F)CC3)cc12
7 | 266 to 268 | O=c1[nH]ncnc2c1ccc1ncnc12
8 | 141 to 142 | CCOc1ccc(CC(=O)Cc2csc(-c3ccc(OC)c(OC)c3)n2)cc1OCC
9 | 148 to 154 | CN1C(=O)CC(c2c(-c3ccc[nH]3)[nH]c3ccc(O)cc23)C1=O (centres undefined)
10 | 200 to 202 | COc1ccc(-c2cnc(N3CCc4c([nH]c5ccccc45)C3c3ccc4c(c3)OCO4)nc2)cc1 (centres undefined)
11 | 172 to 174 | O=C(O)c1c(Cl)ccc([N+](=O)[O-])c1Nc1ccc(OCc2ccccc2)cc1
12 | 124 to 131 | CC(C)(C)NC(=O)C(Cc1ccc(OCc2ccccc2)cc1)NC(=O)c1ccc(C(C)(C)C)cc1 (centres undefined)
13 | 168 | CCCCc1nc2cscc2n1Cc1ccc(-c2ccccc2C(=O)O)cc1
14 | 257 to 258 | Clc1nc2ccccc2c2[nH]cnc12
15 | 66 to 68.5 | COC(=O)COc1ccc(OC)cc1C(=O)OC
16 | 162 to 163 | COc1cc(C(=O)O)ccc1Cc1cn(C)c2ccc(CC(C)NC(=O)N(C)C)cc12 (centres undefined)
17 | 159 to 160 | Cc1oc(-c2ccccc2)nc1CCOc1ccc(COc2ccccc2CC(=O)O)cn1
18 | 92 to 94 | COc1cc(NCCCCCCN2CCN(c3ccc(Cl)c(Cl)c3)CC2)c2nccc(C)c2c1
19 | 218 to 219 | Cn1cc(-c2cccc(N3Cc4cc(C(C)(C)C)ccc4C3=O)c2CO)nc(Nc2cnn(C3CC3)c2)c1=O
20 | 220 to 221 | CCn1nc(-c2ccccc2)c(C(C)=O)c(Nc2cccc3ncccc23)c1=O
21 | 175 to 177 | Cc1cc(CNC2CC2)cc(C)c1Oc1ccc([N+](=O)[O-])c(Nc2ccc(C#N)cc2)n1
22 | 227 to 230 | COc1cc(NC(=S)NC(=O)/C=C/c2ccco2)ccc1-c1cc2ccccc2oc1=O
23 | 170 | CS(=O)(=O)N1CCN([C@@H](CNC(=O)c2ccc(OCc3cccc4ccccc34)cc2)C(=O)NO)CC1
24 | 129 to 131 | O=[N+]([O-])c1ccc2c(c1)ncn2-c1ccccc1
25 | 221 to 222 | O=C(Nc1nccs1)c1cccc(-c2ccc3c(c2)C(Nc2ccc(Cl)cc2Cl)CO3)c1 (centres undefined)

Row | melting point [°C] | Structure (SMILES)
26 | 167 to 168 | COCCOCCOc1ccc2sc(C(=O)Nc3ccccc3N)cc2c1
27 | 161 | COc1cc2c(c(OC)c1OC)-c1ccc([N+](=O)[O-])cc1COC2
28 | 219 to 220 | CCc1n[nH]c2c1nc(-c1cccnc1)c1ccccc12
29 | 177 to 179 | COc1ccc2c(c1)c(C)cc(=O)n2Cc1ccccc1Cl
30 | 233 to 234 | Cc1cnoc1-c1ccc2c(c1)c1cc(-c3ccc(Cl)cc3Cl)c(=O)n(C)c1n2C
31 | 106 to 108 | O=C(Cc1ccccc1)c1ccc(OCc2ccccc2)cc1O
32 | 197 to 198 | Nc1nccc(-c2ccc(OCC(O)CN3CCN(c4cccc(Cl)c4)CC3)cc2)n1 (centres undefined)
33 | 76 to 77 | C=CCc1cc(-c2ccc(F)cc2)cc(C(=O)OC)c1O
34 | 216 to 218 | COc1ccc2c(c1)C(=O)c1c-2nc2ccccc2c1Cl
35 | 160 to 161 | COC(=O)c1cc(F)c(OC)nc1Nc1ccc(F)cc1F
36 | 234 to 235 | COc1cc2ncnc(Nc3ccc(OCc4ccccn4)c(C)c3)c2cc1O
37 | 195 to 197 | COc1c(F)cc(-c2c(-c3ccc(S(C)(=O)=O)cc3)cnn(-c3ccc(F)c(Cl)c3)c2=O)cc1F
38 | 255 to 257 | Cc1cc(C(=O)Nc2ccn3cc(-c4ccccc4)nc3n2)ccn1
39 | 127 to 128 | CNC(=O)C(N)Cc1ccc2ccccc2c1 (centres undefined)
40 | 147 to 149 | C=C(C)CONC(=O)c1nc(-c2ccc(Cl)c(OC)c2F)cc(N)c1Cl
41 | 96 to 99 | CCOC(=O)Cn1c(=O)sc2cccc(Oc3ccccc3)c21
42 | 163 to 166 | O=C1c2ccccc2C(=O)N1Cc1cc2cc(Cl)cc(-c3ccccc3)c2o1
43 | 160 | Cc1cc(-c2ccc(C(F)(F)F)cc2)cc(-c2cccc(-c3ccnc(N)c3)n2)n1
44 | 217 to 218 | Cc1cc2c(cc1Cl)CCN2C(=O)Nc1cccnc1
45 | 126 to 128 | CC(C)Cn1c(=O)n(C)c(=O)c2c(SCC(C)O)c(Cc3cccc4ccccc34)sc21 (centres undefined)
46 | 149 to 151 | CCCCNc1nc(C)nc2c1nnn2-c1ccc(C(C)C)cc1Br
47 | 226 to 228 | COc1cc(Nc2c(C#N)cnc3cc(-c4ccc(CN5CCN(C)CC5)cc4)sc23)c(Cl)cc1Cl
48 | 255 to 259 | Cc1ccc(-c2nc3sc4ccccc4n3c2CC(=O)O)s1
49 | 203 to 205 | CCOCc1nc2c(N)nc3ccccc3c2n1CC(C)(C)CS(=O)(=O)NCc1ccc(OC)cc1
50 | 110 | COc1ccc(CN(C)CCCCCc2ccc(NC(=O)c3cccc4c(=O)c5ccccc5[nH]c34)cc2)cc1OC

Second part, the compound before the results:

Row | Structure (SMILES) | melting point [°C]
51 | CCOC(=O)CCc1cc(O)nn1C(C)C | 119 to 120
52 | CCS(=O)CCC(=O)NNC(=O)N1Cc2ccccc2Oc2ccc(Cl)cc21 (centres undefined) | 185 to 188
53 | CCOC(=O)c1cnn(-c2ccc(OCCC(C)C)c(C#N)c2)c1 | 125 to 126
54 | CC(=O)OC1C(CO)OC(n2c(=O)sc3cnc(N)nc32)C1OC(C)=O (centres undefined) | 109 to 111
55 | O=C(O)C[C@H]1CC[C@H](Sc2nc(C3OCCO3)n(Cc3cc4c(cc3Cl)OCO4)c2C(=O)O)CC1 | 145
56 | CCOP(=O)(OCC)C1C(=O)NC(=O)N1C (centres undefined) | 95 to 96
57 | O=C(O)c1c(Cl)ccc([N+](=O)[O-])c1Cl | 133 to 135
58 | Cc1cccc2c(=O)[nH]c(CCCN(C)C)cc12 | 105 to 106
59 | O=P1(c2ccccc2)NCc2ccccc21 (centres undefined) | 177 to 180
60 | CC(N)Cn1ncc2ccc3oc(C(=O)NCC(C)O)cc3c21 (centres undefined) | 190 to 191
61 | Cc1cc(=O)n(C2CCCCC2)c(=O)n1C | 135 to 137
62 | CCOCc1nnc2c(C(F)(F)F)c(Cl)ccn12 | 104
63 | CN(C(=O)c1cnn(C)c1C(=O)Nc1ccn2nc(N3CCOCC3)nc2c1)C1CCCC1 | 222 to 224
64 | C=C=C[C@]12CCC(=O)C=C1C(=O)C[C@@H]1[C@@H]2CC[C@]2(C)C(=O)CC[C@@H]12 | 187 to 190
65 | CC(C)(C)OC(=O)NNc1cccc([N+](=O)[O-])c1 | 105
66 | O=C(NC(=O)c1ccccc1Cl)C(=C1NCCCS1)[N+](=O)[O-] | 130 to 131
67 | CC(=O)Nc1cc2c(cc1[N+](=O)[O-])OC(C)(C)[C@@H](Br)[C@@H]2O (relative stereo) | 198 to 200
68 | N#CCc1cccc2c(-c3ccc(Cl)cc3)onc12 | 165 to 169
69 | CCOC(=O)CN(C)c1ccc(N=C=S)cc1 | 90 to 91
70 | COC1C2=C3C(=CN1OC)OCCC3CC(C(C)=O)C2 (centres undefined) | 100 to 102
71 | CC(=O)NCCC1Nc2ccccc2N2CCc3cccc1c32 (centres undefined) | 196 to 198
72 | CSc1nn2c(Cl)cc(CN3CCOCC3)nc2c1S(=O)(=O)c1ccccc1 | 174 to 176
73 | CCCCC1(SCC)CCC2C3CCC4=CC(=O)C=CC4(C)C3(F)C(O)CC21C (centres undefined) | 185 to 187
74 | NC(=O)Cc1ccc(OCC(O)CNCCCCn2cnc3ccccc32)cc1 (centres undefined) | 119 to 123
75 | CC(C(=O)O)c1ccc(-c2ccc(Br)cc2)c(F)c1 (centres undefined) | 133 to 135

Row | Structure (SMILES) | melting point [°C]
76 | Cc1oc(-c2ccccc2)nc1CCOc1ccc(CC(Nc2ccccc2C(=O)c2ccccc2C(=O)O)C(=O)O)cc1 (centres undefined) | 107 to 110
77 | CCC(=O)N1CCC(NC(=O)Nc2cccc(C(F)(F)F)c2)CC1 | 153 to 154
78 | CCNC(=O)c1ccc(C=O)cc1 | 100
79 | COC1C=C(C)C(=O)CC(C)(C)C1OC(=O)c1ccccc1 (centres undefined) | 91.5 to 93.5
80 | N#CC1CCSc2[nH]c3ccccc3c21 (centres undefined) | 125 to 126
81 | CCOC(=O)c1oc(SC)c2c1CCCC2=O | 123 to 124
82 | Cc1cn(N)c2ccccc12 | 60 to 63
83 | O=C(O)c1ccc(N2C(=O)c3ccc(C(=O)O)cc3C2=O)cc1 | 377 to 379
84 | O=C(NC(=O)c1ccccc1)NC1CCCc2sccc21 (centres undefined) | 189 to 194
85 | CC(C)C[C@H](CC(=O)OC(C)(C)C)C(=O)N1C(=O)OC[C@@H]1C(C)C | 143 to 144
86 | COCC1CN(c2ccc(C3CC3)cc2)C(=O)O1 (racemic) | 58 to 60
87 | C=CCN(c1ccccc1CC(=O)N(C)C)c1c(Cl)cccc1Cl | 110 to 114
88 | COC(=O)CN1C(=O)c2c(c3cc(C)ccc3n2C)S1(=O)=O | 248
89 | COc1cc(F)c(-c2cncc(OC3SCC(O)C(O)C3O)c2)c(F)c1 (centres undefined) | 200
90 | CCOc1cc(N)c(Cl)cc1C(=O)[NH+]([O-])CC1CN(Cc2ccccc2Cl)CCO1 (centres undefined) | 154 to 157
91 | O=C1CCCN1C1=CC(CF)(CF)Oc2ccc(C(F)(F)C(F)(F)F)cc21 | 104 to 105
92 | CCOC(=O)C(SC)c1ccccc1NC (centres undefined) | 87.5 to 88.5
93 | S=C=Nc1ccc(-c2nc(-c3cccnc3)no2)cc1 | 121 to 123
94 | Cn1cc(C(N)=O)c(=O)c2sc(Cl)cc21 | 325 to 327
95 | O=C(CC(=O)c1ccccc1C(=O)O)c1ccc(Cl)cc1 | 148 to 150
96 | CC(=O)OC1C(COC(=O)c2ccccc2)OC(n2cc(F)c(=O)[nH]c2=O)C1F (centres undefined) | 177 to 179
97 | CC(=O)OCC1OC(Oc2nc[nH]c2C(N)=O)C(OC(C)=O)C(OC(C)=O)C1OC(C)=O (centres undefined) | 234 to 235
98 | Cc1cccc(S(=O)(=O)n2cncn2)c1C#N | 142 to 144
99 | CCC(=NO)c1ccc(OCCOC)cc1 | 74 to 80
